According to ChEMBL document CHEMBL1132382 (J Med Chem, 1999):
pKi: −log10 of the molar value. Values after ≈ are worked out from the molar mass of the structure shown.

Columns and labels:
Carbonic anhydrase 4 = target: T1, Carbonic anhydrase 4 (Bos taurus, UniProt Q95323)
T1 sequence (Q95323 whole entry): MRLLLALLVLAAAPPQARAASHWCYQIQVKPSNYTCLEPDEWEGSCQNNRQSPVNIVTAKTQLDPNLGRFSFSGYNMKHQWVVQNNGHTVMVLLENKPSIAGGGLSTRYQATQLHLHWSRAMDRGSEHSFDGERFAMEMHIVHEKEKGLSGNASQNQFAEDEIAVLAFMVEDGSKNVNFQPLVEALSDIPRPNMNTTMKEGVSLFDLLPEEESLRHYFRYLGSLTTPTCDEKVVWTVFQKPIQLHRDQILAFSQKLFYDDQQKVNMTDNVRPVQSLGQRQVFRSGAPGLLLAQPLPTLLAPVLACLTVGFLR
Description: Inhibitory activity against bovine carbonic anhydrase IV (CA4), isolated from bovine lung microsomes

Oryctolagus cuniculus [1] = organism: Oryctolagus cuniculus; assay: The compound was evaluated for fall in intraocular pressure (IOP) of Normotensive rabbits after treatment with one drop (50 microL) of a 2% solution at 0 min (pH 6.4); assay type: functional, Eye
Oryctolagus cuniculus [2] = organism: Oryctolagus cuniculus; assay: The compound was evaluated for fall in intraocular pressure (IOP) of Normotensive rabbits after treatment with one drop (50 microL) of a 2% solution at 90 min (pH 6.4); assay type: functional, Eye
Oryctolagus cuniculus [3] = organism: Oryctolagus cuniculus; assay: The compound was evaluated for fall in intraocular pressure (IOP) of Normotensive rabbits after treatment with one drop (50 microL) of a 2% solution at 30 min (pH 6.4); assay type: functional, Eye
Oryctolagus cuniculus [4] = organism: Oryctolagus cuniculus; assay: The compound was evaluated for fall in intraocular pressure (IOP) of Normotensive rabbits after treatment with one drop (50 microL) of a 2% solution at 60 min (pH 6.4); assay type: functional, Eye
Carbonic anhydrase 1 = Carbonic anhydrase 1 (Homo sapiens, UniProt P00915)
Description: Inhibitory activity against human recombinant carbonic anhydrase I (CA1)

[5] = not given; remark: listed apart in the source
[6] = octanol/water
Description: Partition coefficient (logD) (chloroform/buffer)

physchem = settings: buffer, pH 7.4
Oryctolagus cuniculus [7] = organism: Oryctolagus cuniculus; assay: The compound was evaluated for fall in intraocular pressure (IOP) of Normotensive rabbits after treatment with one drop (50 microL) of a 2% solution at 30 min (pH 5.5); assay type: functional, Eye
Oryctolagus cuniculus [8] = organism: Oryctolagus cuniculus; assay: The compound was evaluated for fall in intraocular pressure (IOP) of Normotensive rabbits after treatment with one drop (50 microL) of a 2% solution at 0 min (pH 5.5); assay type: functional, Eye
Oryctolagus cuniculus [9] = organism: Oryctolagus cuniculus; assay: The compound was evaluated for fall in intraocular pressure (IOP) of Normotensive rabbits after treatment with one drop (50 microL) of a 2% solution at 60 min (pH 5.5); assay type: functional, Eye
Oryctolagus cuniculus [10] = organism: Oryctolagus cuniculus; assay: The compound was evaluated for fall in intraocular pressure (IOP) of Normotensive rabbits after treatment with one drop (50 microL) of a 2% solution at 90 min (pH 5.5); assay type: functional, Eye
Oryctolagus cuniculus [11] = organism: Oryctolagus cuniculus; assay: The compound was evaluated for fall in intraocular pressure (IOP) of Normotensive rabbits after treatment with one drop (50 microL) of a 2% solution at 0 min (pH 6.5); assay type: functional, Eye
Oryctolagus cuniculus [12] = organism: Oryctolagus cuniculus; assay: The compound was evaluated for fall in intraocular pressure (IOP) of Normotensive rabbits after treatment with one drop (50 microL) of a 2% solution at 30 min (pH 6.5); assay type: functional, Eye
Oryctolagus cuniculus [13] = organism: Oryctolagus cuniculus; assay: The compound was evaluated for fall in intraocular pressure (IOP) of Normotensive rabbits after treatment with one drop (50 microL) of a 2% solution at 60 min (pH 6.5); assay type: functional, Eye
Oryctolagus cuniculus [14] = organism: Oryctolagus cuniculus; assay: The compound was evaluated for fall in intraocular pressure (IOP) of Normotensive rabbits after treatment with one drop (50 microL) of a 2% solution at 90 min (pH 6.5); assay type: functional, Eye
Oryctolagus cuniculus [15] = organism: Oryctolagus cuniculus; assay: The compound was evaluated for fall in intraocular pressure (IOP) of Normotensive rabbits after treatment with one drop (50 microL) of a 2% solution at 0 min (pH 7.5); assay type: functional, Eye
Oryctolagus cuniculus [16] = organism: Oryctolagus cuniculus; assay: The compound was evaluated for fall in intraocular pressure (IOP) of glaucomatous rabbits after treatment with one drop (50 microL) of a 2% solution at 60 min (pH 7.5); assay type: functional, Eye
Oryctolagus cuniculus [17] = organism: Oryctolagus cuniculus; assay: The compound was evaluated for fall in intraocular pressure (IOP) of glaucomatous rabbits after treatment with one drop (50 microL) of a 2% solution at 90 min (pH 7.5); assay type: functional, Eye
Oryctolagus cuniculus [18] = organism: Oryctolagus cuniculus; assay: The compound was evaluated for fall in intraocular pressure (IOP) of glaucomatous rabbits after treatment with one drop (50 microL) of a 2% solution at 30 min (pH 7.5); assay type: functional, Eye
Oryctolagus cuniculus [19] = organism: Oryctolagus cuniculus; assay: The compound was evaluated for fall in intraocular pressure (IOP) of Normotensive rabbits after treatment with one drop (50 microL) of a 2% solution at 30 min (pH 7.5); assay type: functional, Eye
Oryctolagus cuniculus [20] = organism: Oryctolagus cuniculus; assay: The compound was evaluated for fall in intraocular pressure (IOP) of Normotensive rabbits after treatment with one drop (50 microL) of a 2% solution at 60 min (pH 7.5); assay type: functional, Eye
Oryctolagus cuniculus [21] = organism: Oryctolagus cuniculus; assay: The compound was evaluated for fall in intraocular pressure (IOP) of Normotensive rabbits after treatment with one drop (50 microL) of a 2% solution at 0 min (pH 7.0); assay type: functional, Eye
Oryctolagus cuniculus [22] = organism: Oryctolagus cuniculus; assay: The compound was evaluated for fall in intraocular pressure (IOP) of Normotensive rabbits after treatment with one drop (50 microL) of a 2% solution at 30 min (pH 7.0); assay type: functional, Eye
Oryctolagus cuniculus [23] = organism: Oryctolagus cuniculus; assay: The compound was evaluated for fall in intraocular pressure (IOP) of Normotensive rabbits after treatment with one drop (50 microL) of a 2% solution at 90 min (pH 7.0); assay type: functional, Eye
Oryctolagus cuniculus [24] = organism: Oryctolagus cuniculus; assay: The compound was evaluated for fall in intraocular pressure (IOP) of Normotensive rabbits after treatment with one drop (50 microL) of a 2% solution at 60 min (pH 7.0); assay type: functional, Eye
Oryctolagus cuniculus [25] = organism: Oryctolagus cuniculus; assay: The compound was evaluated for fall in intraocular pressure (IOP) of Normotensive rabbits after treatment with one drop (50 microL) of a 2% solution at 30 min (pH 5.6); assay type: functional, Eye
Oryctolagus cuniculus [26] = organism: Oryctolagus cuniculus; assay: The compound was evaluated for fall in intraocular pressure (IOP) of Normotensive rabbits after treatment with one drop (50 microL) of a 2% solution at 0 min (pH 5.6); assay type: functional, Eye
Oryctolagus cuniculus [27] = organism: Oryctolagus cuniculus; assay: The compound was evaluated for fall in intraocular pressure (IOP) of Normotensive rabbits after treatment with one drop (50 microL) of a 2% solution at 60 min (pH 5.6); assay type: functional, Eye
Oryctolagus cuniculus [28] = organism: Oryctolagus cuniculus; assay: The compound was evaluated for fall in intraocular pressure (IOP) of Normotensive rabbits after treatment with one drop (50 microL) of a 2% solution at 90 min (pH 5.6); assay type: functional, Eye

Carbonic anhydrase 1, sequence (P00915 whole entry): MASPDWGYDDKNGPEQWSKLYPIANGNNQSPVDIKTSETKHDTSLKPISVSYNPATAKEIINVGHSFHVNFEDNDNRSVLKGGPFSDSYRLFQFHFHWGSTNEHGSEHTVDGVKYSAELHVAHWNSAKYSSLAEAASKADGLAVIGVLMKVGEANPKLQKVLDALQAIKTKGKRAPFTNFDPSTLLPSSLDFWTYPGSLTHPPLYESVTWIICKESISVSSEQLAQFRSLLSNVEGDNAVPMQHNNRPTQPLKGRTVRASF

Row | SMILES | pKi (Carbonic anhydrase 4) | pKi (Carbonic anhydrase 1) | kin [h⁻¹] | kin [5] [h⁻¹] | logD [6] | solubility (physchem) [mM] | Change in IOP (Oryctolagus cuniculus [1]) [mmHg] | Change in IOP (Oryctolagus cuniculus [2]) [mmHg] | Change in IOP (Oryctolagus cuniculus [3]) [mmHg] | Change in IOP (Oryctolagus cuniculus [4]) [mmHg] | also measured
1 | CCN(C(=O)CN(C)C(=N)N)C1CC(C)S(=O)(=O)c2sc(S(N)(=O)=O)cc21 (configuration not stated) | 7.57 | 7.12 |  |  |  |  | 0 | 7.6 | 5 | 9.1 | 
2 | CCN(C(=O)CNC(=O)CN)C1CC(C)S(=O)(=O)c2sc(S(N)(=O)=O)cc21 (configuration not stated) | 7.51 | 7.05 |  |  |  |  | 0 | 6.9 | 4.9 | 8.7 | 
3 | CN(CC(=O)Nc1ccc(S(N)(=O)=O)cc1F)C(=N)N | 7.41 | 6.29 |  |  |  |  |  |  |  |  | Change in IOP (Oryctolagus cuniculus [11]): 0 mmHg; Change in IOP (Oryctolagus cuniculus [12]): 3 mmHg; Change in IOP (Oryctolagus cuniculus [13]): 7.2 mmHg; Change in IOP (Oryctolagus cuniculus [14]): 5 mmHg
4 | CN(CC(=O)/N=c1/sc(S(N)(=O)=O)nn1C)C(=N)N | 7.39 | 6.72 |  |  |  |  |  |  |  |  | Change in IOP (Oryctolagus cuniculus [21]): 0 mmHg; Change in IOP (Oryctolagus cuniculus [22]): 5.5 mmHg; Change in IOP (Oryctolagus cuniculus [23]): 9 mmHg; Change in IOP (Oryctolagus cuniculus [24]): 9.2 mmHg
5 | CCNC1CC(C)S(=O)(=O)c2sc(S(=O)(=O)NC(=O)CNC)cc21 (configuration not stated) | 7.52 | 7.11 | 3.9 | 7.8 | 1.785 | 62 (≈ 24.5 mg/mL) |  |  |  |  | Change in IOP (Oryctolagus cuniculus [25]): 3.1 mmHg; Change in IOP (Oryctolagus cuniculus [26]): 0 mmHg; Change in IOP (Oryctolagus cuniculus [27]): 7 mmHg; Change in IOP (Oryctolagus cuniculus [28]): 5.5 mmHg

Stronger by pKi (Carbonic anhydrase 4), values ahead:

Row | pKi (Carbonic anhydrase 4) | pKi (Carbonic anhydrase 1) | kin [h⁻¹] | kin [5] [h⁻¹] | logD [6] | solubility (physchem) [mM] | SMILES | Change in IOP (Oryctolagus cuniculus [1]) [mmHg] | Change in IOP (Oryctolagus cuniculus [2]) [mmHg] | Change in IOP (Oryctolagus cuniculus [3]) [mmHg] | Change in IOP (Oryctolagus cuniculus [4]) [mmHg] | also measured
6 | 7.74 | 8.05 | 3.1 | 6.4 | 1.85 | 50 (≈ 19.4 mg/mL) | NCC(=O)NCC(=O)NS(=O)(=O)c1nc2ccc(OCCO)cc2s1 | 0 | 5.4 | 3.3 | 7 | 
7 | 8.00 | 7.68 |  |  |  |  | NCC(=O)NCCC(=O)Nc1nnc(S(N)(=O)=O)s1 |  |  |  |  | Change in IOP (Oryctolagus cuniculus [7]): 5 mmHg; Change in IOP (Oryctolagus cuniculus [8]): 0 mmHg; Change in IOP (Oryctolagus cuniculus [9]): 9.3 mmHg; Change in IOP (Oryctolagus cuniculus [10]): 8.4 mmHg
8 | 8.10 | 7.68 | 4.7 | 8.5 | 1.944 | 75 (≈ 27.3 mg/mL) | CN(CC(=O)NCCC(=O)Nc1nnc(S(N)(=O)=O)s1)C(=N)N |  |  |  |  | Change in IOP (Oryctolagus cuniculus [15]): 6.6 mmHg; Change in IOP (Oryctolagus cuniculus [16]): 14.2 mmHg; Change in IOP (Oryctolagus cuniculus [17]): 14.3 mmHg; Change in IOP (Oryctolagus cuniculus [18]): 8.6 mmHg; Change in IOP (Oryctolagus cuniculus [19]): 10.7 mmHg; Change in IOP (Oryctolagus cuniculus [20]): 9.8 mmHg
